Experimental data taken from PubChem BioAssay AID449762 (Southern Research Specialized Biocontainment Screening …, 2010).
Records with an inconclusive call do not appear. Where a SMILES comes first, the peptide text is derived from it. [ ]: non-standard residue; d: D form. The star is where a group is joined. ξ: configuration not given here. ξF = NC(Cc1ccccc1)C(=O)O; Cbz = O=C(OCc1ccccc1)*

What follows are compounds tested on M. tuberculosis H37Rv growth inhibition, 7H9 media (assay: M. tuberculosis growth inhibition, HTS (AID 449762;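 also: bacterial growth assessed after seven days of incubation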)). Details: measured here: IC90 growth inhibition.

Row | SMILES | IC90
1 | Oc1ccccc1/C=N/Nc1ccnc(SCc2ccccc2)n1 | 1.55 µM
2 | COc1ccc(C2(c3ccc(OC)cc3)NC(=O)N(CC(=O)Nc3ccc(OC(F)F)cc3)C2=O)cc1 | 79.9 µM
3 | O=C(Nc1nc2nc(-c3ccccc3)cc(=O)n2[nH]1)c1ccccc1 | > 100 µM
4 | Cn1cc(/C=C2\C(=O)NC(=O)N(c3ccccc3)C2=O)c2ccccc21 | 24.2 µM
5 | O=[N+]([O-])c1cc(Cl)c(O)c(-[n+]2c(-c3ccccc3)cc(-c3ccccc3)cc2-c2ccccc2)c1 | 5.36 µM
6 | Cc1cc(/C=C(/C#N)c2cccc(F)c2)c(C)n1-c1cccnc1 | > 100 µM
7 | COc1ccc(C(CCNCc2ccc(OC(C)C)cc2)C(C)C)cc1 (stereo not given) | 26.9 µM
8 | O=S1(=O)N(CCN2CC=C(c3c[nH]c4cc(F)ccc34)CC2)c2cccc3c2N1CCC3 | 11.7 µM
9 | O=[N+]([O-])c1cc(C=Nc2ccc3ccccc3c2)ccc1Br | 45.6 µM
10 | COc1ccc(N/N=C(/N=Nc2nc(C)cc(=O)[nH]2)c2ccccc2)cc1 | 6.69 µM
11 | CCOC(=O)CSc1snnc1-c1ccccc1 | 59.6 µM
12 | Cc1c(CCC(=O)NCCCn2ccnc2)c(=O)oc2c(C)c3occ(C(C)(C)C)c3cc12 | 36.3 µM
13 | CC(C)=CCOc1ccc([C@@H]2COc3c(ccc4c3C=CC(C)(C)O4)C2)c(O)c1 | 7.77 µM
14 | CC12CCC(=O)N1C(C(=O)Nc1ccc(SC(F)F)cc1)CS2 (stereo not given) | 63.1 µM
15 | COC(=O)C(CCSC)NC(=O)c1cn(-c2ccc(OC)cc2)c(=O)c2ccccc12 (stereo not given) | > 100 µM
16 | On1onc2c3cc(-c4ccccc4)nc3ccc21 | < 0.2 µM
17 | CCCCN(C)S(=O)(=O)c1ccc(C(=O)Nc2nnc(-c3ccco3)o2)cc1 | 21.2 µM
18 | C(=N\Nc1ncnc2sc3c(c12)CCC3)/c1cccs1 | 16.8 µM
19 | C/C(=N\NC(=S)NCC(C)(C)C)c1cc(F)cc(F)c1O | 8.86 µM
20 | COc1ccc(C2CC(=O)c3cnc(Nc4cc(C)cc(C)c4)nc3C2)cc1 (stereo not given) | 22.4 µM
21 | O=C(NC1CCCCCC1)c1ccccc1-c1ccccc1 | > 100 µM
22 | COc1ccc(C(=O)/C=C/Sc2nc3ccccc3o2)cc1 | > 100 µM

Row | SMILES | IC90
23 | CCCCCCC#Cc1ccc2c(c1)COc1c3ccccc3nn1-2 | > 100 µM
24 | O=C(Nc1ccc(C2=NCCN2)cc1)c1ccc(Cl)c(C(=O)Nc2ccc(C3=NCCN3)cc2)c1 | 12.3 µM
25 | COc1cc(C)ccc1OCCOc1c(C)cc(Cl)cc1Cl | > 100 µM
26 | COC(=O)C1=C(C)N(Cc2ccccc2)C(=NCc2cccc(Cl)c2)N[C@H]1c1ccccc1 | 21 µM
27 | CCN(C[C@H]1N[C@@](Cc2ccccc2)(C(=O)OC)[C@H]2C(=O)N(Cc3ccccc3)C(=O)[C@@H]12)C(=O)Nc1ccc(C(F)(F)F)cc1 | 11.4 µM
28 | CCC[C@@H]1C[C@@H](C(=O)NC(C(C)Cl)[C@H]2O[C@H](SC)[C@H](O)[C@@H](O)[C@H]2O)N(C)C1 (stereo not given in full) | 5.1 µM
29 | CCCc1cc2c(cc1NC(=O)c1ccccc1Cl)OCO2 | > 100 µM
30 | CCOC(=O)N1CCN=C1SCc1ccc(C(F)(F)F)cc1 | > 100 µM
31 | Cc1cccc2c1-c1sc(C(=O)Nc3ccccc3N3CCN(C)CC3)cc1CO2 | 25.1 µM
32 | CCCOP(=O)(OCCC)c1c([N+](=O)[O-])cc(C(F)(F)F)cc1[N+](=O)[O-] | 6.52 µM
33 | Oc1ccccc1-c1nnc(COc2ccccc2)o1 | 34.7 µM
34 | Nc1nnnn1/N=C/C(Br)=C/c1ccccc1 | 8.66 µM
35 | Cc1ccc(-n2[nH]c(C)c(C=Nc3ccc(S(=O)(=O)Nc4nccs4)cc3)c2=O)c(C)c1 | 17 µM
36 | COc1ccc(OC)c(CN2CCN(C(=O)CNC(=O)c3ccc(C(C)(C)C)cc3)CC2)c1 | 67.8 µM
37 | CC1(C)Cc2ccccc2C2=NNC(=O)C2=N1 | 21 µM
38 | COc1ccc(-c2cc(C3CCN(C(=O)OC(C)(C)C)CC3)[nH]n2)cc1 | 30.6 µM
39 | CSC(=S)N/N=C/c1ccccc1 | 12.8 µM
40 | Cc1cccc(NC(=O)c2nc[nH]c2C(=O)N[C@H](C)c2ccccc2)c1 | > 100 µM
41 | Cc1ccccc1-n1c(SCC(=O)N/N=C/c2c(C)nn(-c3ccccc3)c2C)nc2ccccc2c1=O | 3.52 µM
42 | Cc1nn(Cc2ccccc2)c(C)c1C(=O)OCC(=O)c1cc(C)n(CC(F)(F)F)c1C | 35.4 µM
43 | CCOC(=O)N/N=C(/C)c1ccc([N+](=O)[O-])o1 | 11.8 µM
44 | CCN(CC)c1ccc2c(Cl)c(Br)c(=O)oc2c1 | 43.4 µM

Row | SMILES | IC90
45 | COc1ccc(-c2cc3ccccc3oc2=O)cc1NC(=O)c1ccc([N+](=O)[O-])o1 | > 100 µM
46 | Cc1cc(C)cc(-n2c(C)c3c(C)nnc(C)c3c2C)c1 | 78.1 µM
47 | CN(C)c1ccc(CNC2C3CC4CC(C3)CC2C4)cc1 (stereo not given) | 13 µM
48 | C=CCN(CC(=O)c1sc(C(=O)OCC)nc1C)c1cccc(Br)c1 | 28.8 µM
49 | CN1C(=O)/C(=C/c2cccc(Cl)c2)Sc2ccc(C(=O)N3CCCC3)cc21 | 31 µM
50 | CC1=NN(c2ccc(C)c(C)c2)C(=O)/C1=C\C=C\c1ccc([N+](=O)[O-])o1 | 15.5 µM
51 | O=C(CSc1nnnn1C1CCCCC1)Nc1nc2c(s1)CCCC2 | 59.3 µM
52 | Cc1cc(/C=N/n2cnnc2)c(C)n1-c1ccc(OCc2ccc(Cl)cc2Cl)cc1 | 15.8 µM
53 | CCCc1cc(-c2nc(-c3ccc(Br)cc3)cs2)ccn1 | 20.6 µM
54 | Cc1noc(C)c1COc1ccc(C(=O)OCC(=O)NC23CC4CC(CC(C4)C2)C3)cc1 | 24.5 µM
55 | C=CCc1c(C)nc(C)nc1N/N=C/c1ccccc1O | 4.08 µM
56 | O=[N+]([O-])c1cnc(Nc2ccc(Cl)cn2)c([N+](=O)[O-])c1 | > 100 µM
57 | Nc1c(C(=O)O)cnc2c(-c3ccc(Cl)cc3)cnn12 | 55.6 µM
58 | C=CCSc1n[nH]c(-c2ccc(OCCCC)cc2)n1 | 39.2 µM
59 | O=C(CCl)Nc1cccn2ncnc12 | 2.89 µM
60 | O=C(CN1CCN(Cc2ccc(Cl)cc2)CC1)N/N=C/C=C/c1ccccc1[N+](=O)[O-] | 37.6 µM
61 | CC(C)(C)c1ccc(OCCCC(=O)NC2=NCCS2)cc1 | 60.6 µM
62 | CC(C)(C)C1CCc2sc(-c3nnc(CCl)o3)cc2C1 (stereo not given) | 5.54 µM
63 | CCOC(=O)CNC(=O)C(Cc1ccccc1)NC(=O)OCc1ccccc1 (stereo not given) (Cbz-[ξF]-Gly-OEt) | 3.36 µM
64 | Cn1cnc(Sc2ncnc3nc[nH]c23)c1[N+](=O)[O-] | 17 µM
65 | CCOC(=O)c1ccc(-c2c(-c3ccc4c(c3)OCO4)noc2C)cc1F | 54 µM
66 | Cc1ccc(NC(=O)COC(=O)CCc2c[nH]c3ccccc23)cc1[N+](=O)[O-] | 4.74 µM

Row | SMILES | IC90
67 | Cn1c(/C=N/Nc2nc3ccccc3[nH]2)nc2ccccc21 | 61.4 µM
68 | CCCCCc1nc2c(c(=O)c3ccccc3n2C)c(=O)n1C1CCCCCC1 | > 100 µM
69 | CN(Cc1ccco1)c1ncnc2ccc(-c3ccc4c(ccn4C)c3)cc12 | 44.9 µM
70 | CC1CCN(c2nc(Cl)nc(Nc3ccc([N+](=O)[O-])cc3)n2)CC1 | > 100 µM
71 | C=CCN1CC[C@]23c4c5ccc(O)c4O[C@H]2/C(=N/NC(=O)c2ccccc2)CC[C@@]3(O)[C@H]1C5 | > 100 µM
72 | Cc1ccc(-c2csc3ncnc(Nc4ccc(N5CCOCC5)cc4)c23)cc1 | 50.1 µM
73 | CCn1c(SCC(=O)Nc2ccc3c(c2)oc2ccccc23)nnc1-c1ccc(N)cc1 | > 100 µM
74 | O=C(NC1CCCCC1)C(c1ccc2ncccc2c1)N(Cc1ccco1)C(=O)c1ccc2c(c1)OCCO2 (stereo not given) | > 100 µM
75 | COc1ccc(C(C(O)C(=O)c2c[nH]c3ccccc23)N2CCN(c3ccc(OC)cc3)CC2)cc1 (stereo not given) | > 100 µM
76 | Cc1ccc(NS(=O)(=O)c2ccc(NC(=O)CN(c3cc([N+](=O)[O-])ccc3C)S(C)(=O)=O)cc2)c(C)c1 | > 100 µM
77 | S=c1nc2ccccc2c2nc(-c3ccccc3)[nH]n12 | 14.6 µM
78 | Cn1nnnc1Sc1ncnc2scc(-c3cc4ccccc4o3)c12 | 7 µM
79 | N#CC(C#N)=C(N)CSc1cccc[n+]1[O-] | 11 µM
80 | Cc1nn(-c2ccccc2)c2c1C(c1ccc([N+](=O)[O-])cc1)N1C(=N2)C(=O)Nc2ccccc21 (stereo not given) | > 100 µM
81 | Cc1nc(N2CCN(c3ccccn3)CC2)c2c(C)c(C(=O)N3CCN(c4ccc(F)cc4)CC3)sc2n1 | 12.5 µM
82 | COC(=O)C(C)Oc1ccc(-c2nccc(-c3ccccn3)n2)cc1 (stereo not given) | 4.04 µM
83 | COc1ccc(NC(C)C(=O)Nc2ccc(C(C)(C)C)cc2)cc1Cl (stereo not given) | > 100 µM
84 | CCOc1cc(C(=O)OCc2ccc(C(=O)OC)o2)cc(Br)c1OC | > 100 µM
85 | CCOC(=O)c1ccc(N=C2C(=S)N(c3ccc(C(=O)OCC)cc3)C(=N)N2/N=C/c2ccccc2)cc1 | > 100 µM
